Measured values published in patent EP0291751A2, “Pharmaceutical mixture preparation” (Wilhelm, Gerhard, Dr., priority 1987, dated 1988).

System: Symptome des Heuschnupfens
Conditions: alone or together, without Hydroxiphenylalkanolamin

`Cc1ncc(C[n+]2csc(CCO)c2C)c(N)n1` [Vitamin B₁] was tested, and the “die Symptome des Heuschnupfens lindernde Wirkung” value was “weder alleine noch gemeinsam miteinander”.
